Consider ten compounds from patent US5245051A, “Antipsychotic chroman derivatives of benzodioxanmethylamine” (American Home Products Corporation, priority 1992, dated 1993).

One may read the ED50 as the dose that gives a 50% effect, or the effect in half of the subjects. The low end stands for an effect at a small dose, the high end for a need for a large dose.

Structures are written as SMILES.

For one assay, the system named is dopa accumulation. The assay is described as follows: Inhibition of dopa accumulation in GBL-treated rats (effect on dopamine synthesis, Walters and Roth). In kind it is in vivo, rat (male, Sprague-Dawley). The following applies: sc, limbic (L) brain tissue, rat, read-out: Dopa Accumulation (% inhib. @ 10 mg/kg, sc). As to the method: The effect of the compounds of the invention on the synthesis of dopamine was established by the method of Walters and Roth, Naunyn-Schmiedeberg's Arch. Pharmacol. 296:5-14, 1976, in which rats (male, Sprague-Dawley, Charles River, 200-350 g) were administered vehicle or test drug ten minutes prior to the administration of gamma butyrolactone (GBL; 750 mg/kg, ip to inhibit dopaminergic impulse flow) and 20 minutes prior to NSD-1015 (100 mg/kg, ip to prevent the conversion of dopa to dopamine). Thirty minutes after NSD-1015 all rats were decapitated and the nucleus accumbens and the striatum were removed for analysis. Following perchloric acid extraction of the tissue, the extracts were placed over alumina columns to collect and concentrate dopa and other catechols. This eluate was then subjected to HPLC analysis using electrochemical detection to quantify the levels of dopa present. Dopamine autoreceptor agonists, under the conditions used above, inhibit dopa accumulation.
Turning to `O=c1ccoc2cc(OCCCNC[C@H]3COc4cc5c(cc4O3)OCO5)ccc12` [Example 2, (S)-7-[3-[[(6,7-Dihydro-1,3-dioxolo[4,5-g][1,4]benzodioxin-6-yl)methyl]amino]propoxy]chromen-4-one], the inhibition at 10 mg/kg amounted to 60.3%.

A further assay has as its system mouse locomotor activity. The assay is described as follows: Reduction of mouse locomotor activity (hypolocomotion). Format: in vivo, mouse (male, CF-1). To be noted: 20 min, ip, horizontal activity counts 10 to 20 minutes after dosing. As for the experimental part: The antipsychotic activity of the compounds of the invention was further established by a determination of the compounds' ability to reduce mouse locomotor activity according to the method of Martin and Bendensky, J. Pharmacol. Exp. Therap. 229: 706-711, 1984, in which mice (male, CF-1, Charles River, 20-30 g) were injected with vehicle or various doses of each drug and locomotor activity was measured for 30 minutes using automated infrared activity monitors (Omnitech-8×8 inch open field) located in a darkened room. ED50 's were calculated from the horizontal activity counts collected from 10 to 20 minutes after dosing using a nonlinear regression analysis with inverse prediction.
`O=c1ccoc2cc(OCCCNC[C@H]3COc4cc5c(cc4O3)OCO5)ccc12` [Example 2, (S)-7-[3-[[(6,7-Dihydro-1,3-dioxolo[4,5-g][1,4]benzodioxin-6-yl)methyl]amino]propoxy]chromen-4-one] came in with an ED50 of 2.74 mg/kg.

The target of the next assay is T1, dopamine D2 receptor (Rattus norvegicus, UniProt P61169).
T1 construct: homogenized rat striatal brain tissue; from tissue; host or cells: rat striatal brain tissue homogenate
T1 sequence (P61169 whole entry): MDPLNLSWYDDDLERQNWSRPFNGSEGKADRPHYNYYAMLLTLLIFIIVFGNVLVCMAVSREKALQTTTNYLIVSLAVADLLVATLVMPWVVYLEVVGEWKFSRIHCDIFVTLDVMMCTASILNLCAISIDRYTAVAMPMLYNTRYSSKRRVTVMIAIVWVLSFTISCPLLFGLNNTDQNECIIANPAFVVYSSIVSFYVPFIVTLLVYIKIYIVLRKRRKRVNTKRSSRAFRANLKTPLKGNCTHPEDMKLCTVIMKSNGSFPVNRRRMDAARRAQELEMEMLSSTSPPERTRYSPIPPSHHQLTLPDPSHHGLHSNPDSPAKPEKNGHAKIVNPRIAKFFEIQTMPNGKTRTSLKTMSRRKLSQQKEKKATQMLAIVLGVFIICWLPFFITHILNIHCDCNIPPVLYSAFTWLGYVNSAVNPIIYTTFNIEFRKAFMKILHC
The assay is described as follows: Affinity for dopamine D2 receptor (3H-quinpirole, homogenized rat striatal brain tissue). Format: binding.
Settings: not given
As for the experimental part: Affinity for the dopamine D2 receptor was established by a modification of the standard experimental test procedure of Seemen and Schaus, European Journal of Pharmacology 203: 105-109, 1991, wherein homogenized rat striatal brain tissue is incubated with ^3 H-quinpirole and various concentrations of test compound, filtered and washed and counted in a Betaplate scintillation counter.
As for `O=c1ccoc2cc(OCCCNC[C@H]3COc4cc5c(cc4O3)OCO5)ccc12` [Example 2, (S)-7-[3-[[(6,7-Dihydro-1,3-dioxolo[4,5-g][1,4]benzodioxin-6-yl)methyl]amino]propoxy]chromen-4-one], the inhibition at 0.1 µM came to 73%.
On the same count and under the same terms, the figure for `O=C1CCOc2cc(OCCCNCC3COc4cc5c(cc4O3)OCO5)ccc21` (stereo not drawn) [Example 4, 7-[3-[[(6,7-Dihydro-1,3-dioxolo[4,5-g][1,4]benzodioxin-6-yl)methyl]amino]propoxy]-chroman-4-one] is 24%.
Still for that read-out and setting: in the case of `O=c1ccoc2ccc(OCCCNCC3COc4cc5c(cc4O3)OCO5)cc12` (stereo not drawn) [Example 5, 6-[3-[[(6,7-Dihydro-1,3-dioxolo[4,5-g][1,4]benzodioxin-6-yl)methyl]amino]propoxy]-chromen-4-one] it was 39%; in that of `c1cc2c(cc1OCCCNCC1COc3cc4c(cc3O1)OCO4)CCCO2` (stereo not drawn) [Example 6, N-[3-(Chroman-6-yloxy)-propyl]-6,7-dihydro-1,3-dioxolo[4,5-g][1,4]benzodioxin-6-methanamine], 23%.
`c1cc2c(cc1OCCCNCC1COc3cc4c(cc3O1)OCO4)OCCC2` (stereo not drawn) [Example 7, N-[3-(Chroman-7-yloxy)-propyl]-6,7-dihydro-1,3-dioxolo[4,5-g][1,4]benzodioxin-6-methanamine]: the inhibition at 0.1 µM turned out to be 24%.
Turning to `COc1ccc2c(c1)OC(CNCCCOc1ccc3c(=O)ccoc3c1)CO2` (stereo not drawn) [Example 8, 7-[3-[(7-Methoxy-2,3-dihydro-benzo[1,4]dioxin-2-ylmethyl)amino]propoxy]chromen-4-one], the inhibition at 0.1 µM is 49%.
Regarding `O=c1ccoc2cc(OCCCNCC3COc4cc5c(cc4O3)OCO5)ccc12` (stereo not drawn) [Example 1, 7-[3-[[(6,7-Dihydro-1,3-dioxolo[4,5-g][1,4]benzodioxin-6-yl)methyl]amino]propoxy]chromen-4-one], the inhibition at 0.1 µM was 65%.
Still for that read-out and setting: in the case of `O=C1COc2cc(OCCCNCC3COc4cc5c(cc4O3)OCO5)ccc21` (stereo not drawn) [Example 10, 6-[3-[(6,7-Dihydro-1,3-dioxolo[4,5-g][1,4]benzodioxin-6-ylmethyl)amino]propoxy)-benzofuran-3-one] it was 43%; in that of `O=c1ccoc2cc(OCCCNCC3COc4ccc(O)cc4O3)ccc12` (stereo not drawn) [Example 9, 7-[3-[(7-Hydroxy-2,3-dihydro-benzo[1,4]dioxin-2-ylmethyl)amino]propoxy]chromen-4-one], 100%.

The subject of the next assay is 5-HT1A receptor.
Test: not given
The following applies: (-)-isomer versus dextrorotary isomer; cited from earlier work.
As for `O=C1CC2(CCCC2)CC(=O)N1CCCCNCC1COc2ccccc2O1` (single isomer, unassigned; (-)) [(-)-MDL 72832, 8-[4-(1,4-benzodioxan-2-ylmethylamino)butyl]-8-azaspiro[4.5]decane-7,9-dione], the “binds times as much as the dextrorotary isomer at the 5-HT1A receptor site” value is on record as 32 times.
